The experiment has as its target cAMP and cAMP-inhibited cGMP 3',5'-cyclic phosphodiesterase 10A (Homo sapiens, UniProt Q9Y233). The experiment is described as follows: PDE10A assay. The gist of the method: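 Scintillation proximity readout of [3H]cGMP hydrolysis (50 nM final substrate, 15 min) by 2 ng/well human PDE10A after 15 min compound preincubation at RT, pH 7.5 with MgCl2. Four-parameter logistic fit gave IC50, reported as pIC50.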
Compound `O=C1CCc2c(NC(=O)c3nc(C4CC4)cnc3Nc3cncnc3)cccc21` [Roche-Dataset for PDE10A, Compound 932] showed an IC50 of 124 nM.
The figure for `COCCN(C)c1nc(CCc2nc3c(C)ncc(C)n3n2)nn1C` [Roche-Dataset for PDE10A, Compound 847] is 1780 nM; for `Cn1nc(N2CCCC2)nc1/C=C/c1nc(N2CCCC2)nn1C` [Roche-Dataset for PDE10A, Compound 550] it is 188 nM.
For the compound `Cc1c(Cl)cc(Cl)c2nc(CCc3nc4ccccc4n3C)nn12` [Roche-Dataset for PDE10A, Compound 497], the IC50 worked out at 61 nM.
Take `NS(=O)(=O)c1ccc(CNC(=O)c2nc(C3CC3)cnc2Nc2cncnc2)cc1` [Roche-Dataset for PDE10A, Compound 817]: inhibition was half-maximal at 389 nM (IC50).
The figure for `CNC(=O)c1ccc(F)cc1NC(=O)c1nc(C2CC2)cnc1Nc1cncnc1` [US8703768, 292] is 0.68 nM; for `Cc1[nH]c(-c2ccncc2)nc1CCN1C(=O)c2ccccc2C1=O` [Roche-Dataset for PDE10A, Compound 395] it is 17400 nM.
In turn, `Cn1cc(-c2ccccc2)nc1CCNC(=O)c1cccn2c(C(F)(F)F)nnc12` [Roche-Dataset for PDE10A, Compound 298] displayed an IC50 of 88 nM.
The figure for `O=C(Nc1ccn([C@]23C[C@H]4C[C@H](C[C@H](C4)C2)C3)n1)c1nc(C2CC2)ccc1Nc1cncnc1` [Roche-Dataset for PDE10A, Compound 537] is 12 nM.
The figure for `CNC(=O)c1cc2[nH]c(-c3ccccc3)nc2cc1NC(=O)c1cc(C)n[nH]1` [Roche-Dataset for PDE10A, Compound 430] is 355 nM; for `COc1cccc(-c2cn3c(n2)C[C@H](NC(=O)c2c(C(=O)N(C)C)cnn2C)CC3)c1` [Roche-Dataset for PDE10A, Compound 230] it is 263 nM; for `Cc1ncc(C)n2nc(/C=C/c3nc(Br)cn3C3CC3)nc12` [Roche-Dataset for PDE10A, Compound 964] it is 6650 nM.
The figure for `O=C1CCc2ccc(NC(=O)c3nc(C4CC4)cnc3Nc3cncnc3)cc21` [Roche-Dataset for PDE10A, Compound 881] is 27 nM.
Take `Cc1cc(NC(=O)c2ccc3cc(-c4ccccc4)nn3c2)on1` [Roche-Dataset for PDE10A, Compound 898]: it took 3350 nM to reach half-maximal inhibition (IC50).
The figure for `COCc1ccc(Nc2cncnc2)c(C(=O)Nc2cc(-c3ccccn3)nn2C)n1` [US8470820, 59] is 6.57 nM; for `O=C1NCc2ccc(NC(=O)c3nc(C4CC4)ccc3Nc3cncnc3)cc21` [Roche-Dataset for PDE10A, Compound 788] it is 20 nM; for `CCOC(=O)c1cnn(C)c1C(=O)Nc1ccn2nc(N(C)C3CC3)nc2c1` [Roche-Dataset for PDE10A, Compound 486] it is 58 nM.
In the case of `CN(C)C(=O)c1cc(NC(=O)c2nc(C3CC3)ccc2Nc2cncnc2)nn1C` [Roche-Dataset for PDE10A, Compound 1005], inhibition was half-maximal at 675 nM (IC50).
The compound `COCCNC(=O)c1cc2[nH]c(-c3ccccc3)nc2cc1NC(=O)c1cc(C2CC2)cnc1OC` [Roche-Dataset for PDE10A, Compound 349] showed an IC50 of 0.66 nM.
Under `C/C(=C/c1nc2c(C)ncc(C)n2n1)c1nc(Br)nn1C` [Roche-Dataset for PDE10A, Compound 1134] stands 2260 nM; under `Cn1ncc(C(=O)N2CCC2)c1C(=O)Nc1ccn2nc(-c3cccc(OCF)c3)nc2c1` [Roche-Dataset for PDE10A, Compound 96], 0.85 nM; under `O=C(Nc1ccn2nc(-c3ccccc3)nc2c1)c1conc1C(=O)NC1CC1` [Roche-Dataset for PDE10A, Compound 437], 150 nM.
For `Cc1c(C(F)F)nc2ccc(C#Cc3nc(N4CCCC4)nn3C)nn12` [2-(Difluoromethyl)-3-methyl-6-((1-methyl-3-(pyrrolidin-1-yl)-1H-1,2,4-triazol-5-yl)ethynyl)imidazo[1,2-b]pyridazine], it took 4.74 nM to reach half-maximal inhibition (IC50).

As usually defined, the IC50 is the concentration needed to halve the response being measured. The low end stands for greater potency, the high end for weaker potency.
